The source of these data is ChEMBL document CHEMBL1201862, “PubChem BioAssay data set” (2004).

Test systems include TK-10; OVCAR-8; DU-145; NCI-H460; HCT-116; RXF 393; RPMI-8226; SR; T47D; Hs-578T; MDA-MB-231; NCI-H23; OVCAR-4; SF-295; EKVX; SK-OV-3; SW-620; MCF7; NCI-H522; MDA-N.
Experiment in all cases: NCI anticancer screen, dose series, 48 h

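1) Cells in 96-well plates. 2) Compound, 48 h, 5 concentrations. 3) Linear interpolation between surrounding doses. 4) Unreached endpoint = highest concentration. GI50 is the concentration that inhibits growth by half.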 Activity calls are given as the source filed them. Rule as the data show it: active = GI50 up to about 1.1 µM and inactive = higher.

Regarding `OC(c1ccc(C(F)(F)F)cc1)C(F)(F)c1nc2ccccc2o1` (configuration not stated), the GI50 in the experiment on TK-10, with OVCAR-8, with DU-145, in the experiment with NCI-H460, with HCT-116 and in the experiment with RXF 393 was > 100 µM (inactive) in each case. The GI50 in the experiment on RPMI-8226, in the experiment with SR, with T47D, with Hs-578T, in the experiment with MDA-MB-231 and in the experiment on NCI-H23 was > 100 µM (inactive) each time. Also, the GI50 in the experiment with OVCAR-4, with SF-295, with EKVX, in the experiment on SK-OV-3, with SW-620 and with MCF7 was > 100 µM (inactive) throughout.
With `O=C(CSc1nccc(=O)[nH]1)c1ccccc1`, the GI50 with TK-10 was > 100 µM (inactive); in the experiment on OVCAR-8 it was > 100 µM (inactive); in the experiment on DU-145, > 100 µM (inactive); with NCI-H460, 80.5 µM (inactive); in the experiment on HCT-116, > 100 µM (inactive); in the experiment on RXF 393, > 100 µM (inactive). The GI50 is > 100 µM (inactive) with SR; > 100 µM (inactive) with NCI-H522; > 100 µM (inactive) in the experiment with T47D; 16.1 µM (inactive) in the experiment with Hs-578T; 61.5 µM (inactive) in the experiment with MDA-MB-231; > 100 µM (inactive) in the experiment with NCI-H23. Further, the GI50 with OVCAR-4 is > 100 µM (inactive); in the experiment with SF-295 it was 60.4 µM (inactive); with EKVX it was > 100 µM (inactive); with SK-OV-3 it was > 100 µM (inactive); with SW-620, > 100 µM (inactive); in the experiment with MCF7, 91 µM (inactive).
For `Oc1ccc(Cl)cc1C1=NC(NCNC2=NC(c3ccccc3)CC(c3cc(Cl)ccc3O)=N2)=NC(c2ccccc2)C1` (configuration not stated), the GI50 with TK-10 was > 100 µM (inactive); in the experiment on OVCAR-8, > 100 µM (inactive); with DU-145, 44.2 µM (inactive); in the experiment with NCI-H460, 87.1 µM (inactive); with HCT-116, 56 µM (inactive); with RXF 393, 37.7 µM (inactive). Besides, the GI50 in the experiment with RPMI-8226 was 63.4 µM (inactive); with SR, 24.9 µM (inactive); with MDA-MB-231, > 100 µM (inactive); with NCI-H23, > 100 µM (inactive); with OVCAR-4, 64.1 µM (inactive); in the experiment with SF-295 it was 79.1 µM (inactive). Also, the GI50 was > 100 µM (inactive) in the experiment with EKVX; 79.1 µM (inactive) in the experiment with MDA-N; > 100 µM (inactive) in the experiment on SK-OV-3; > 100 µM (inactive) with SW-620; 20.9 µM (inactive) in the experiment with MCF7.
`CCCCC1=CC1(C#N)[N+](=O)[O-]` (configuration not stated): the GI50 with TK-10 is > 100 µM (inactive); in the experiment on OVCAR-8, > 100 µM (inactive); in the experiment with DU-145, > 100 µM (inactive); in the experiment with NCI-H460, > 100 µM (inactive); in the experiment on HCT-116, 33.1 µM (inactive); in the experiment with RXF 393, > 100 µM (inactive). Besides, the GI50 was 25.1 µM (inactive) in the experiment on RPMI-8226; 33.3 µM (inactive) in the experiment with SR; 45.6 µM (inactive) with NCI-H522; > 100 µM (inactive) with T47D; > 100 µM (inactive) in the experiment on Hs-578T; > 100 µM (inactive) in the experiment with MDA-MB-231. Besides, the GI50 in the experiment with NCI-H23 is > 100 µM (inactive); in the experiment on OVCAR-4 it was > 100 µM (inactive); in the experiment with SF-295 it was > 100 µM (inactive); in the experiment with EKVX it was > 100 µM (inactive); with SK-OV-3, > 100 µM (inactive); in the experiment on SW-620, 31.8 µM (inactive). For the same molecule, the GI50 with MCF7 was 45.4 µM (inactive).
As for `O=C(O)c1ccccc1/C=C1\Cc2ccc3c(c2C1=O)CCCC3`, the GI50 with TK-10 is 75.2 µM (inactive); in the experiment with OVCAR-8, 68.7 µM (inactive); in the experiment on DU-145, 41.4 µM (inactive); in the experiment on NCI-H460, 32 µM (inactive); in the experiment with HCT-116, 30.1 µM (inactive); with RXF 393, 30.5 µM (inactive). The GI50 in the experiment with RPMI-8226 is 26.9 µM (inactive); in the experiment on SR, 26.8 µM (inactive); in the experiment with NCI-H522, 25.2 µM (inactive); with T47D, 19.6 µM (inactive); in the experiment with Hs-578T, 34.1 µM (inactive); in the experiment with MDA-MB-231, 21.4 µM (inactive). Besides, the GI50 is 26.1 µM (inactive) in the experiment with NCI-H23; 41.6 µM (inactive) with OVCAR-4; 31.6 µM (inactive) in the experiment with SF-295; 43.3 µM (inactive) in the experiment on EKVX; 94.8 µM (inactive) with SK-OV-3; 30.8 µM (inactive) in the experiment on SW-620. In addition, the GI50 in the experiment on MCF7 was 48.3 µM (inactive).
For `COC1=C(C)C(=O)C2=C(C1=O)C1C3CC4=C(C(=O)C(OC)=C(C)C4=O)C(CNC(=O)C(C)=O)N3C(C#N)C(C2)N1C` (configuration not stated), the GI50 with TK-10 is 0.0328 µM (active); in the experiment on OVCAR-8, 0.00661 µM (active); with DU-145 it was 0.00545 µM (active); in the experiment with NCI-H460, 0.0101 µM (active); with HCT-116 it was 0.00711 µM (active); in the experiment with RXF 393 it was 0.00496 µM (active). Further, the GI50 in the experiment on RPMI-8226 was 0.0014 µM (active); with NCI-H522 it was < 0.001 µM (active); in the experiment with T47D, < 0.001 µM (active); with Hs-578T, < 0.001 µM (active); in the experiment on MDA-MB-231, 0.00283 µM (active); in the experiment on NCI-H23, 0.00385 µM (active). Also, the GI50 is 0.0405 µM (active) with OVCAR-4; 0.0202 µM (active) in the experiment on SF-295; 0.104 µM (active) in the experiment on EKVX; 0.0741 µM (active) with SK-OV-3; 0.00246 µM (active) with SW-620; 0.01 µM (active) in the experiment with MCF7.
For `CCOC(=O)NN(C(=O)OCC)C(=C(C1=CCCCC1)N1CCOCC1)N(NC(=O)OCC)C(=O)OCC`, the GI50 in the experiment with TK-10, with OVCAR-8, in the experiment with DU-145, in the experiment with NCI-H460, in the experiment with RXF 393 and with RPMI-8226 was > 100 µM (inactive) throughout. Moreover, the GI50 in the experiment with SR, with T47D, in the experiment with MDA-MB-231, in the experiment on NCI-H23, in the experiment on SF-295 and with EKVX was > 100 µM (inactive) in each case. The GI50 in the experiment with MDA-N, in the experiment on SK-OV-3, in the experiment on SW-620 and in the experiment on MCF7 was > 100 µM (inactive) throughout.
Regarding `CCN1C[C@]2(COC)[C@H](O)C[C@H](OC)[C@]34C1[C@H]([C@H](OC)[C@H]23)[C@]1(OC(C)=O)[C@H]2[C@@H](OC(=O)c3ccccc3)[C@](O)(C[C@H]24)[C@@H](OC)[C@@H]1O`, the GI50 in the experiment on TK-10, in the experiment on OVCAR-8, in the experiment with DU-145, with NCI-H460, in the experiment on HCT-116 and with SR was > 100 µM (inactive) each time. For the same molecule, the GI50 in the experiment on NCI-H522, with T47D, in the experiment on Hs-578T, in the experiment with MDA-MB-231, in the experiment with NCI-H23 and in the experiment with OVCAR-4 was > 100 µM (inactive) throughout. For the same molecule, the GI50 with SF-295, in the experiment on EKVX, with SK-OV-3, in the experiment on SW-620 and with MCF7 was > 100 µM (inactive) throughout.
